Measured values as given in ChEMBL document CHEMBL4371080, “Multiple weak intercalation as a strategy for the inhibition of polymerases” (Bioorg Med Chem Lett, 2019).
Where a SMILES comes first, the peptide text is derived from it. Bridges are numbered along the chain shown (N, C = ends). [ ]: non-standard residue; d: D form. The star is where a group is joined. ξ: configuration not given here. Quinoxaline2carbonyl = O=C(c1cnc2ccccc2n1)*; ξDap = NCC(N)C(=O)O

Tests used:
[1] = target: Human immunodeficiency virus type 1 reverse transcriptase (Human immunodeficiency virus 1) (UniProt Q72547); experiment: Inhibition of HIV1 reverse transcriptase assessed as reduction in [3H]dTTP incorporation by measuring proportional residual activity ratio at 300 uM using poly(rA)/oligo(dT) as template/primer after 30 mins by scintillation counting method
[2] = target: T1, Human immunodeficiency virus type 1 reverse transcriptase (Human immunodeficiency virus 1, UniProt Q72547); experiment: Inhibition of HIV1 reverse transcriptase assessed as reduction in [3H]dTTP incorporation using poly(rA)/oligo(dT) as template/primer after 30 mins by scintillation counting method
[3] = target: Human immunodeficiency virus type 1 reverse transcriptase (Human immunodeficiency virus 1) (UniProt Q72547); experiment: Inhibition of HIV1 reverse transcriptase assessed as reduction in [3H]dTTP incorporation by measuring proportional residual activity ratio at 100 uM using poly(rA)/oligo(dT) as template/primer after 30 mins by scintillation counting method
[4] = target: T2, DNA polymerase alpha catalytic subunit (Homo sapiens) (UniProt P09884); experiment: Inhibition of human DNA polymerase-alpha assessed as reduction in [3H]dTTP incorporation in to activated calf thymus DNA substrate at 600 uM after 30 mins by scintillation counting method relative to control
T2 sequence (whole entry): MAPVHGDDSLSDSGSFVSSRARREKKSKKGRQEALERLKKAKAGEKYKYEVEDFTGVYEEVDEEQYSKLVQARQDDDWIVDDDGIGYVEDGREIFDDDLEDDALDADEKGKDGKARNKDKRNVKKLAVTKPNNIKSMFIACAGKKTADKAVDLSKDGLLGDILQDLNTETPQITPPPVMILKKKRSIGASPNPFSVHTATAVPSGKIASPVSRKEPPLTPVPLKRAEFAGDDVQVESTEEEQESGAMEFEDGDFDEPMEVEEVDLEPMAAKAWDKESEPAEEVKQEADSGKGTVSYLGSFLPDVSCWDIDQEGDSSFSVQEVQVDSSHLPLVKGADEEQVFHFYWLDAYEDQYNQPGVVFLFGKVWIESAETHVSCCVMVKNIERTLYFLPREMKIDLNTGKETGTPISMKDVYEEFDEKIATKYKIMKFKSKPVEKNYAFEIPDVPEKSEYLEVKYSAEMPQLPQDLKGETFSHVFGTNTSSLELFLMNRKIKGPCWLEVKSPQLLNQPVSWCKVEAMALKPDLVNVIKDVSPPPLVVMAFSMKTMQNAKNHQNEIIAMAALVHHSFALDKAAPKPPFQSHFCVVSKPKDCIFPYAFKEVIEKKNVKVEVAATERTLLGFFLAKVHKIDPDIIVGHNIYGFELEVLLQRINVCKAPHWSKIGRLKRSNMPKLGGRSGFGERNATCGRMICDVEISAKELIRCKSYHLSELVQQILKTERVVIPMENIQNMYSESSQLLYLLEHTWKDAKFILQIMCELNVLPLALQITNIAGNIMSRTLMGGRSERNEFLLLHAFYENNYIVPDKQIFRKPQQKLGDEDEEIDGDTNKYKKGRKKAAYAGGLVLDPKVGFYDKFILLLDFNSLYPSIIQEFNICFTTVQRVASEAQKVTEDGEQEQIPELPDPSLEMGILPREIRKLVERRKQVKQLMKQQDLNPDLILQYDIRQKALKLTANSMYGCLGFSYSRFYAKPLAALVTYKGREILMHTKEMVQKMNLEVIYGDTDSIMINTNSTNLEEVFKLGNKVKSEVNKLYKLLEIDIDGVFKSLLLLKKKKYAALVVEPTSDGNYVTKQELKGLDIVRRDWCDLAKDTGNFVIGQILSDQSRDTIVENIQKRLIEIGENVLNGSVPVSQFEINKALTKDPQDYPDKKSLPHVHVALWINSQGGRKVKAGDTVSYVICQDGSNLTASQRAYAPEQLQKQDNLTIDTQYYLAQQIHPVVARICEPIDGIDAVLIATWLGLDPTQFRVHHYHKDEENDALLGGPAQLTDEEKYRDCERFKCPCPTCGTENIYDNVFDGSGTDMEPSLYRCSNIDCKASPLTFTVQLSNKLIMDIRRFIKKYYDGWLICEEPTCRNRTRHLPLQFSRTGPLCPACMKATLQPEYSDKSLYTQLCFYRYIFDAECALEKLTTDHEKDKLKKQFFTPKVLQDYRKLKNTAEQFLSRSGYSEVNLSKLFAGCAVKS

[5] = target: Human immunodeficiency virus type 1 reverse transcriptase (Human immunodeficiency virus 1) (UniProt Q72547); experiment: Inhibition of HIV1 reverse transcriptase assessed as reduction in [3H]dTTP incorporation by measuring proportional residual activity ratio at 20 uM using poly(rA)/oligo(dT) as template/primer after 30 mins by scintillation counting method relative to control
[6] = target: T1, Human immunodeficiency virus type 1 reverse transcriptase; experiment: Inhibition of HIV1 reverse transcriptase assessed as reduction in [3H]dTTP incorporation using poly(rA)/oligo(dT) as template/primer after 30 mins in presence of calf thymus DNA by scintillation counting method
[7] = target: T1, Human immunodeficiency virus type 1 reverse transcriptase; experiment: Inhibition of HIV1 reverse transcriptase assessed as reduction in [3H]dTTP incorporation using poly(rA)/oligo(dT) as template/primer after 30 mins in presence of Triton-X-100 by scintillation counting method
[8] = target: Human immunodeficiency virus type 1 reverse transcriptase (Human immunodeficiency virus 1) (UniProt Q72547); experiment: Ratio of IC50 for inhibition of HIV1 reverse transcriptase in presence of calf thymus DNA to IC50 for inhibition of HIV1 reverse transcriptase in absence of calf thymus DNA

Structure (SMILES) | Ratio [5] | IC50 [2] [µM] | other results
NC(=O)[C@H](Cc1c[nH]c2ccccc12)NC(=O)CCNC(=O)[C@H](N)Cc1c[nH]c2ccccc12 |  | 188 | Ratio [1]: 0.3
NC(=O)[C@@H](Cc1c[nH]c2ccccc12)NC(=O)CCCNC(=O)[C@@H](N)Cc1c[nH]c2ccccc12 |  |  | Ratio [3]: 0.78
O=C(O)c1ccnc2ccccc12 |  | 9600 | 
O=C(O)c1cnc2ccccc2c1 |  | 2400 | 
NC(=O)[C@@H](Cc1c[nH]c2ccccc12)NC(=O)CCNC(=O)[C@H](N)Cc1c[nH]c2ccccc12 |  |  | Ratio [3]: 0.39
COc1ccc2cc([C@H](C)C(=O)O)ccc2c1 [NAPROXEN SODIUM] |  | 6700 | 
O=C(O)c1cnc2ccccc2n1 |  | 320 | 
COc1cc(NC(C)CCCN)c2ncccc2c1 (configuration not stated) [PRIMAQUINE PHOSPHATE] |  | 100 | 
NC(=O)[C@H](Cc1c[nH]c2ccccc12)NC(=O)CCNC(=O)[C@@H](N)Cc1c[nH]c2ccccc12 |  | 227 | Ratio [1]: 0.25
NC(=O)[C@H](Cc1c[nH]c2ccccc12)NC(=O)CCCNC(=O)[C@@H](N)Cc1c[nH]c2ccccc12 |  |  | Ratio [3]: 0.55
NC(=O)[C@@H](N)Cc1c[nH]c2ccccc12 |  | 9900 | IC50 [7]: 15700 µM

Continued, in another order:

Ratio [5] | Structure (SMILES) | IC50 [2] [µM] | other results
0.09 | NCC1NC(=O)C[C@@H](C(N)=O)NC(=O)C(CNC(=O)c2cnc3ccccc3n2)NC(=O)CNC(=O)CNC(=O)CNC(=O)C(CNC(=O)c2cnc3ccccc3n2)NC1=O (stereo partly drawn) ([ξDap][ξDap](Quinoxaline2carbonyl)GGG[ξDap](Quinoxaline2carbonyl)D-NH2; lactam N-7) | 6.5 | inhibition [4]: 89%; IC50 [6]: 21.8 µM; IC50 [7]: 7 µM; Ratio IC50 [8]: 3.5
0.09 | NCC1NC(=O)C[C@@H](C(N)=O)NC(=O)CNC(=O)C(CNC(=O)c2cnc3ccccc3n2)NC(=O)C(CNC(=O)c2cnc3ccccc3n2)NC(=O)CNC(=O)C(CNC(=O)c2cnc3ccccc3n2)NC1=O (some centres not stated) ([ξDap][ξDap](Quinoxaline2carbonyl)G[ξDap](Quinoxaline2carbonyl)[ξDap](Quinoxaline2carbonyl)GD-NH2; lactam N-7) |  | 
0.06 | NCC1NC(=O)C[C@@H](C(N)=O)NC(=O)C(CNC(=O)c2cnc3ccccc3n2)NC(=O)CNC(=O)CNC(=O)C(CNC(=O)c2cnc3ccccc3n2)NC(=O)C(CNC(=O)c2cnc3ccccc3n2)NC1=O (stereo partly drawn) ([ξDap][ξDap](Quinoxaline2carbonyl)[ξDap](Quinoxaline2carbonyl)GG[ξDap](Quinoxaline2carbonyl)D-NH2; lactam N-7) |  | 
0.18 | NCC1NC(=O)C[C@@H](C(N)=O)NC(=O)C(CNC(=O)c2cnc3ccccc3n2)NC(=O)CNC(=O)C(CNC(=O)c2cnc3ccccc3n2)NC(=O)CNC(=O)CNC1=O (stereo partly drawn) ([ξDap]GG[ξDap](Quinoxaline2carbonyl)G[ξDap](Quinoxaline2carbonyl)D-NH2; lactam N-7) |  | 
0.3 | NCC1NC(=O)C[C@@H](C(N)=O)NC(=O)CNC(=O)CNC(=O)CNC(=O)C(CNC(=O)c2cnc3ccccc3n2)NC(=O)C(CNC(=O)c2cnc3ccccc3n2)NC1=O (some centres not stated) ([ξDap][ξDap](Quinoxaline2carbonyl)[ξDap](Quinoxaline2carbonyl)GGGD-NH2; lactam N-7) |  | 
0.11 | NCC1NC(=O)C[C@@H](C(N)=O)NC(=O)CNC(=O)CNC(=O)C(CNC(=O)c2cnc3ccccc3n2)NC(=O)CNC(=O)C(CNC(=O)c2cnc3ccccc3n2)NC1=O (some centres not stated) ([ξDap][ξDap](Quinoxaline2carbonyl)G[ξDap](Quinoxaline2carbonyl)GGD-NH2; lactam N-7) |  | 
0.13 | NCC1NC(=O)C[C@@H](C(N)=O)NC(=O)C(CNC(=O)c2cnc3ccccc3n2)NC(=O)C(CNC(=O)c2cnc3ccccc3n2)NC(=O)CNC(=O)CNC(=O)C(CNC(=O)c2cnc3ccccc3n2)NC1=O (stereo partly drawn) ([ξDap][ξDap](Quinoxaline2carbonyl)GG[ξDap](Quinoxaline2carbonyl)[ξDap](Quinoxaline2carbonyl)D-NH2; lactam N-7) |  | 
0.66 | NCC1NC(=O)C[C@@H](C(N)=O)NC(=O)CNC(=O)CNC(=O)C(CNC(=O)c2cnc3ccccc3n2)NC(=O)CNC(=O)CNC1=O (some centres not stated) ([ξDap]GG[ξDap](Quinoxaline2carbonyl)GGD-NH2; lactam N-7) |  | 
